Data reported in patent publication EP4700096A1, “INK COMPOSITION FOR INK-JET PRINTING” (Sakata INX Corporation, priority 2023, dated 2024).

Assay: SP value (solubility parameter) calculated by Formula 1
Format: physicochemical
Conditions: 25°C (298 K), calculated by Formula 1 from latent heat of vaporization, molecular weight, density
From the text: The SP value refers to the solubility parameter, and the SP value of the water-soluble organic solvent (B) can be determined by formula 1 below. SP value(unit:((cal/cm^3))^(1/2)) = ({(ΔH−RT)/(M/D)})^(1/2) [formula]

SMILES | SP value (25°C)
CC(O)CO (stereo not drawn) [1,2-propanediol] | 12.6 (cal/cm^3)^1/2
CC(O)COC(C)COC(C)CO (stereo not drawn) [Tripropylene glycol] | 9.0 (cal/cm^3)^1/2
OCC(O)CO [glycerin] | 14.9 (cal/cm^3)^1/2
